From ChEMBL document CHEMBL4414655, “Position Effect of Fatty Acid Modification on the Cytotoxicity and Antimetastasis Potential of the Cytotoxic Peptide Lycosin-I” (J Med Chem, 2019)
Active and inactive are the calls of the source. No cut-off for these calls is given here. Residues, ends and D or L forms follow the SMILES beside them. *: point of attachment. Lauroyl = CCCCCCCCCCCC(=O)*

What was measured:
A549 [1] = assay: Induction of cell membrane disruption in human A549 cells assessed as LDH release at 3.25 uM incubated for 30 mins by fluorescence based assay relative to control
A549 [2] = assay: Potency index, ratio of IC50 for lycosin-I to IC50 for test compound for cytotoxicity in human A549 cells assessed as reduction in cell viability at 0.78 to 50 uM incubated for 24 hrs by CCK8 assay; assay type: functional
A549 [3] = assay: Cytotoxicity in human A549 cells assessed as reduction in cell viability incubated for 24 hrs by CCK8 assay; assay type: functional, cell-based; conditions: A549, 24 h
A549 [4] = assay: Cytotoxicity in human A549 cells assessed as reduction in cell viability by trypan blue staining method; assay type: functional, cell-based
Homo sapiens = organism: Homo sapiens; assay: Induction of cell membrane disruption in human erythrocytes cells assessed as induction of hemolysis at 0.098 to 50 uM incubated for 1 hr by fluorescence based assay relative to control; assay type: cell membranes
B16-F10 = assay: Cytotoxicity in mouse B16/F10 cells assessed as reduction in cell viability incubated for 24 hrs by CCK8 assay; assay type: functional, cell-based; conditions: B16-F10, 24 h
HEK-293T = assay: Cytotoxicity in human HEK293T cells assessed as reduction in cell viability incubated for 24 hrs by CCK8 assay; assay type: cell-based; conditions: human, hek-293t

CCCCCCCCCCCC(=O)NCCCC[C@H](N)C(=O)NCC(=O)N[C@@H](Cc1c[nH]c2ccccc12)C(=O)N[C@@H](Cc1ccccc1)C(=O)N[C@@H](CCCCN)C(=O)N[C@@H](C)C(=O)N[C@@H](CCSC)C(=O)N[C@@H](CCCCN)C(=O)N[C@@H](CO)C(=O)N[C@H](C(=O)N[C@@H](C)C(=O)N[C@@H](CCCCN)C(=O)N[C@@H](Cc1ccccc1)C(=O)N[C@H](C(=O)N[C@@H](C)C(=O)N[C@@H](CCCCN)C(=O)N[C@@H](CCC(=O)O)C(=O)N[C@@H](CCCCN)C(=O)N[C@@H](CC(C)C)C(=O)N[C@@H](CCCCN)C(=O)N[C@@H](CCC(=O)O)C(=O)N[C@@H](Cc1cnc[nH]1)C(=O)N[C@@H](CC(C)C)C(=O)O)[C@@H](C)CC)[C@@H](C)CC (H-K(Lauroyl)GWFKAMKSIAKFIAKEKLKEHL-OH)
Activity (A549 [1]): 51.3% | Ratio IC50 (A549 [2]): 4 - 15 | IC50 (A549 [3]): 3100 nM | Activity (A549 [4]): Active | Activity (Homo sapiens): Active | IC50 (B16-F10): 2000 nM | Activity (HEK-293T): Toxic

CCCCCCCCCCCC(=O)NCCCC[C@H](NC(=O)[C@H](CCSC)NC(=O)[C@H](C)NC(=O)[C@H](CCCCN)NC(=O)[C@H](Cc1ccccc1)NC(=O)[C@H](Cc1c[nH]c2ccccc12)NC(=O)CNC(=O)[C@@H](N)CCCCN)C(=O)N[C@@H](CO)C(=O)N[C@H](C(=O)N[C@@H](C)C(=O)N[C@@H](CCCCN)C(=O)N[C@@H](Cc1ccccc1)C(=O)N[C@H](C(=O)N[C@@H](C)C(=O)N[C@@H](CCCCN)C(=O)N[C@@H](CCC(=O)O)C(=O)N[C@@H](CCCCN)C(=O)N[C@@H](CC(C)C)C(=O)N[C@@H](CCCCN)C(=O)N[C@@H](CCC(=O)O)C(=O)N[C@@H](Cc1cnc[nH]1)C(=O)N[C@@H](CC(C)C)C(=O)O)[C@@H](C)CC)[C@@H](C)CC (H-KGWFKAMK(Lauroyl)SIAKFIAKEKLKEHL-OH)
Activity (A549 [1]): 25.7% | Ratio IC50 (A549 [2]): 4 - 15 | IC50 (A549 [3]): 7300 nM | Activity (A549 [4]): Active | Activity (Homo sapiens): Active | IC50 (B16-F10): 2000 nM | Activity (HEK-293T): Toxic

CCCCCCCCCCCC(=O)NCCCC[C@H](NC(=O)[C@H](CC(C)C)NC(=O)[C@H](CCCCN)NC(=O)[C@H](CCC(=O)O)NC(=O)[C@H](CCCCN)NC(=O)[C@H](C)NC(=O)[C@@H](NC(=O)[C@H](Cc1ccccc1)NC(=O)[C@H](CCCCN)NC(=O)[C@H](C)NC(=O)[C@@H](NC(=O)[C@H](CO)NC(=O)[C@H](CCCCN)NC(=O)[C@H](CCSC)NC(=O)[C@H](C)NC(=O)[C@H](CCCCN)NC(=O)[C@H](Cc1ccccc1)NC(=O)[C@H](Cc1c[nH]c2ccccc12)NC(=O)CNC(=O)[C@@H](N)CCCCN)[C@@H](C)CC)[C@@H](C)CC)C(=O)N[C@@H](CCC(=O)O)C(=O)N[C@@H](Cc1cnc[nH]1)C(=O)N[C@@H](CC(C)C)C(=O)O (H-KGWFKAMKSIAKFIAKEKLK(Lauroyl)EHL-OH)
Activity (A549 [1]): 36.6% | Ratio IC50 (A549 [2]): 4 - 15 | IC50 (A549 [3]): 5000 nM | Activity (A549 [4]): Active | Activity (Homo sapiens): Active | IC50 (B16-F10): 2000 nM | Activity (HEK-293T): Toxic

CCCCCCCCCCCC(=O)NCCCC[C@H](NC(=O)[C@H](C)NC(=O)[C@@H](NC(=O)[C@H](Cc1ccccc1)NC(=O)[C@H](CCCCN)NC(=O)[C@H](C)NC(=O)[C@@H](NC(=O)[C@H](CO)NC(=O)[C@H](CCCCN)NC(=O)[C@H](CCSC)NC(=O)[C@H](C)NC(=O)[C@H](CCCCN)NC(=O)[C@H](Cc1ccccc1)NC(=O)[C@H](Cc1c[nH]c2ccccc12)NC(=O)CNC(=O)[C@@H](N)CCCCN)[C@@H](C)CC)[C@@H](C)CC)C(=O)N[C@@H](CCC(=O)O)C(=O)N[C@@H](CCCCN)C(=O)N[C@@H](CC(C)C)C(=O)N[C@@H](CCCCN)C(=O)N[C@@H](CCC(=O)O)C(=O)N[C@@H](Cc1cnc[nH]1)C(=O)N[C@@H](CC(C)C)C(=O)O (H-KGWFKAMKSIAKFIAK(Lauroyl)EKLKEHL-OH)
Activity (A549 [1]): 34.6% | Ratio IC50 (A549 [2]): 4 - 15 | IC50 (A549 [3]): 4600 nM | Activity (A549 [4]): Active | Activity (Homo sapiens): Active | IC50 (B16-F10): 2000 nM | Activity (HEK-293T): Toxic
